Series [1] has as its system 3D7 line of P. falciparum. Kind of series: Peptide inhibition of parasite growth (pLDH method). The conditions noted are these: for Growth inhibition: 100 μM peptide, 48 hour and 72 hour time points, asynchronous cultures, 2% haematocrit, 0.8% initial parasitaemia, max 0.5% DMSO, pLDH activity; for Growth inhibition / Concentration-response relationship of growth inhibition / Growth inhibition (dose-response curves): means of three experiments in duplicate; for Concentration-response relationship of growth inhibition: ten concentrations between 10 μM and 100 μM; for Concentration-response relationship of growth inhibition / Growth inhibition (dose-response curves): 48 and 72 hours. It counts as cell-based, Plasmodium falciparum. How it is done: P. falciparum line 3D7, adapted to grow in Albumax® (BioSciences, Dun Laoghaire, Ireland), was cultured in human erythrocytes (Irish Blood Transfusion Board, Ireland) in standard growth medium, in candle jars. Fresh erythrocytes were obtained every three weeks and washed according to lab protocols. Staining of blood smears was with Giemsa stain. The number of infected erythrocytes was counted by microscopy and the parasitaemia was calculated.
The antimalarial activity of test peptides (ChinaPeptides Co. Ltd, Shanghai, China) was determined in culture on the 3D7 line of P. falciparum using the parasite lactate dehydrogenase (pLDH) method in 96-well microtitre plates with modifications as previously described. Each test peptide was initially evaluated at three different concentrations, 100 μM, 10 μM and 1 μM, to determine activity range. The effect of the compounds was evaluated at 48 and 72 hours on growth of asynchronous cultures (cultured as described in the previous section) of P. falciparum, determined by the assay of pLDH activity. We used unsynchronised cultures in order (i) to make no prior assumptions about the stage of growth that might be inhibited and (ii) to avoid possible inhibitory effects of the synchronising protocol, e.g. sorbitol treatment, separation techniques, etc. The appropriate dilutions of the compounds were prepared in DMSO and added to the cultures of P. falciparum (2% haematocrit, 0.8% initial parasitaemia and a maximum of 0.5% DMSO). The same methodology was then used to assess the dose-response curves of peptides 5, 7, 10, 11, 12, 13 using ten concentrations between 10 μM and 100 μM.

Series [2] concerns P. falciparum late stages (trophozoite/schizont) introduced to fresh erythrocytes. In words: Schizont to ring development assay. The format is cell-based, Plasmodium falciparum. The conditions noted are these: 100 μM peptide, 2 hours with magnetically purified schizonts, washed, fresh erythrocytes 14–16 hours; rings counted in Giemsa smears; two experiments in triplicate. The source says: Routine erythrocytic P. falciparum cultures are an asynchronous culture consisting of rings, trophozoites, schizonts and merozoites. To enrich for the late stages of erythrocytic development, parasites at high parasitaemia (>15%) were subjected to magnetic selection. Parasitised erythrocytes were passed over a CS column (Miltenyi Biotec, Surrey, UK) which was mounted on a VarioMacs magnet (Miltenyi Biotec, Surrey, UK). The column was then washed with incomplete medium (RPMI 1640 supplemented with 25 mM HEPES, hypoxanthine [50 μg/ml], 0.16% w/v glucose) to remove unparasitised erythrocytes and was then removed from the magnet, a further wash with incomplete medium eluting late-stage parasitised erythrocytes.
Parasites synchronised to late stages (trophozoite/schizont) by magnetic selection were incubated with either the peptide being tested (100 μM concentration) or vehicle only control (DMSO) in complete medium for two hours. Treated schizonts were washed with complete medium and centrifugation at 350 xg for 10 minutes. Washing was repeated twice. Treated schizonts were then introduced to fresh erythrocytes at 2.5% hematocrit and incubated overnight (14–16 hours) with shaking. Parasitaemia was assessed by counting the number of ring stages in parasitised erythrocytes in Giemsa stained blood smears by light microscopy. This crude assay measures not just invasion but merozoite release and early ring-stage development.

In series [3] the test system is erythrocytes from healthy human volunteers. The settings on record: 100 μM peptide; approx. 1.5 × 10^8 erythrocytes, 15 minutes at 37°C, buffer A pH 7.4; absorbance 405 nm; compared with 0.1% (v/v) Triton X-100 = 100%; duplicate, three donors.
Description: The hemolytic activity of the peptides was investigated using erythrocytes from healthy human volunteers. Blood was collected in the presence of 15% anticoagulant acid citrate glucose (ACD) (38 mM citric acid, 75 mM sodium citrate, 124 mM glucose) and was centrifuged at 150 xg for 10 minutes at room temperature. Plasma was removed and erythrocytes were washed twice with buffer A (pH 7.4) (130 mM sodium chloride, 10 mM sodium citrate, 9 mM sodium biocarbonate, 6 mM glucose, 0.9 mM magnesium chloride, 0.81 mM potassium hydrogen phosphate, 10 mM Tris), by cenrifugation at 1,000 xg for 5 minutes and resuspended in the same buffer. For the hemolysis assay approximately 1.5 × 10^8 erythrocytes were incubated with solutions of peptides 5, 10 or 12-Cam at 100 μM and 10 μM concentrations for 15 minutes at 37°C. After incubation, samples were centrifuged at 1,000 xg for 5 minutes and the supernatant was analysed for the presence of hemoglobin at an absorbance of 405 nm. Complete hemolysis was achieved using 0.1% (v/v) Triton X-100 yielding the 100% control value. The assay was run in duplicate with three different donors.
For series [4] the following is noted: reason for exclusion from further investigation.

“Also recorded” adds a separate entry of the source. Where a SMILES comes first, the peptide text is derived from it. The star is where a group is joined. Palmitoyl = CCCCCCCCCCCCCCCC(=O)*

Turning to `CCCCCCCCCCCCCCCC(=O)O` [Palmitate, reference compound], the Growth inhibition result in series [1] was “no inhibitory effect”.
Regarding `CCCCCCCCCCCCCCCC(=O)N[C@@H](CO)C(=O)N[C@@H](CO)C(=O)N[C@@H](CO)C(=O)N[C@@H](CCCNC(=N)N)C(=O)N[C@@H](CCCCN)C(=O)N[C@@H](CC(N)=O)C(=O)N[C@@H](CCCNC(=N)N)C(=O)N[C@@H](Cc1ccccc1)C(=O)N[C@@H](CCCNC(=N)N)C(=O)N[C@@H](Cc1ccc(O)cc1)C(=O)N[C@@H](CC(C)C)C(=O)N1CCC[C@H]1C(=O)N[C@@H](Cc1ccccc1)C(N)=O` [Peptide 5] (Palmitoyl-SSSRKNRFRYLPF-NH2), in series [1], the Growth inhibition entry is “clearly observed” and the “Concentration-response relationship of growth inhibition” value is listed as “clear increases in growth inhibition with increasing concentration”. Also, the “Ability of merozoites to establish new infections in fresh erythrocytes (ring parasitaemia, % of control)” value (“Ability … (ring parasitaemia, % of control)” for short) in series [2] is reported as “almost totally reduced”.
For the compound `CCCCCCCCCCCCCCCC(=O)N[C@@H](CCCNC(=N)N)C(=O)N[C@@H](CCCNC(=N)N)C(=O)N[C@@H](CC(C)C)C(=O)N[C@H](C(=O)N[C@@H](CCCCN)C(=O)N[C@@H](CCCCN)C(=O)N[C@@H](CO)C(=O)N1CCC[C@H]1C(N)=O)[C@@H](C)CC` [Peptide 10] (Palmitoyl-RRLIKKSP-NH2), in series [1], the Growth inhibition result is listed as “clearly observed” and the “Concentration-response relationship of growth inhibition” value is recorded as “clear increases in growth inhibition with increasing concentration”. The “Ability … (ring parasitaemia, % of control)” value in series [2] was “not as significant as that of the other two peptides”. In series [3], the “Release of haemoglobin from erythrocytes” value is reported as “approximately 50%”.
Regarding `CCCCCCCCCCCCCCCC(=O)N[C@@H](CO)C(=O)N[C@@H](Cc1ccc(O)cc1)C(=O)N[C@H](C(=O)N[C@H](C(=O)N[C@@H](CCCNC(=N)N)C(=O)N[C@@H](CCCNC(=N)N)C(=O)N[C@@H](CC(C)C)C(=O)N[C@H](C(=O)N[C@@H](CCCCN)C(=O)N[C@@H](C)C(N)=O)[C@@H](C)CC)[C@@H](C)CC)[C@@H](C)O` [Peptide 12-Cam] (Palmitoyl-SYTIRRLIKA-NH2), the “Growth inhibition of amidated peptide 12 versus its scrambled versions” value in series [1] (10 μM, 48 and 72 hours (Fig 4), three experiments in duplicate) is recorded as “more active than four scrambled controls”.
As to “pal-AALQEPALQDAGESSRKEYFI [glycophorin-C peptide, palmitoylated peptide from glycophorin-C, preliminary testing only]”, the “Activity in preliminary testing” value in series [1] (preliminary testing, no further tests conducted) was “no activity”.
In the case of pal-KEEIIEIVFDENEEKYF [Peptide 7], the “Growth inhibition (dose-response curves)” value in series [1] (10 μM) was “no inhibition”. The Growth inhibition entry in series [1] is on record as “some growth inhibition; also recorded: moderate activity”.
For “pal-KHRKGNNA-NH2 [Peptide 13, palmitoylated, amidated peptide from complement receptor type 1]” the same measures were “no inhibition” and “some growth inhibition; also recorded: moderate activity”.
For pal-KKKLYLYFE-NH2 [Peptide 3], in series [1], the Growth inhibition entry is “some growth inhibition”. Besides, in series [4], the Solubility entry is reported as “insolubility”.
Turning to “pal-KRKLKEEQRTKKIKID [Peptide 4, palmitoylated peptide from putative calcium-transporting ATPase Q76NN8]”, the “Antimalarial activity (overall, growth inhibition assay)” value in series [1] (tested at 100 μM, 10 μM and 1 μM) is “inactive”.
For the compound “pal-SYSIRRLIKA [Peptide 11, palmitoylated peptide from glycophorin-B]”, in series [1], the Growth inhibition result is listed as “some growth inhibition” and the “Concentration-response relationship of growth inhibition” value was “no such clear effect”.
Turning to “pal-SYTIRRLIKA [Peptide 12, palmitoylated peptide from glycophorin-B, common human polymorphism of peptide 11]”, in series [1], the Growth inhibition result is “clearly observed” and the “Concentration-response relationship of growth inhibition” value is listed as “clear increases in growth inhibition with increasing concentration”. Moreover, the “Ability … (ring parasitaemia, % of control)” value in series [2] is listed as “almost totally reduced”.

Values taken from publication PMC4454681, “Design and Evaluation of Antimalarial Peptides Derived from Prediction of Short Linear Motifs in Proteins Related to Erythrocyte Invasion” (PLoS ONE, 2015).
